Source: article PMC5920614 (ACS Central Science, 2018)
Ends that are not written are not given here.

How the values were obtained:
[1] = 31P NMR of peptide/lipid II mixtures; assay type: binding; settings: dimethyl sulfoxide
[2] = cited from earlier work

Sequence: ITSISLCTPGC (also: bicyclic or more (positions not given here)) [nisin A]
- direction of shift of the new 31P NMR resonances (in words) ([1]; lipid II mixed with peptide): both new resonances arising in the nisin/lipid II spectra were shifted upfield
- binding to lipid II by 31P NMR (in words) ([1]; two new 31P resonances): both compounds bind to lipid II
- pyrophosphate 31P peak shift upon nisin binding (in words) ([2]; 31P NMR, dimethyl sulfoxide): the pyrophosphate peaks shift upfield upon nisin binding
- binding to lipid II (in words) [2]: binds to the small molecular weight metabolite lipid II
